{"source": "patent EP2975030B1", "about": "“DIHYDROPYRIDAZINE-3,5-DIONE DERIVATIVE” (Chugai Seiyaku Kabushiki Kaisha, priority 2013, dated 2014)"}
{"test_system": "rat small-intestinal brush border membrane vesicles", "assay": "Inhibitory effect on 33PO4 uptake into rat small-intestinal brush border membrane vesicles (rapid filtration method)", "assay_type": "biochemical, Wistar female rat", "conditions": "1 µM test compound; 33PO4 uptake into rat small-intestinal BBMVs, 60 seconds", "in_short": "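33PO4 uptake into rat small-intestinal brush border membrane vesicles measured by rapid filtration. Reactions were stopped with ice-cold buffer (110 mM NaCl, 1 mM KH2PO4, 10 mM HEPES pH 7.5), filtered and washed. Vesicle-associated radioactivity was counted by liquid scintillation.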", "units": {"Rate of uptake inhibition (%) (1 µM)": "%"}}
{"molecule": "C[C@]12CCCN1N(Cc1c(Cl)cc(OCCN3CCOCC3)cc1Cl)C(=O)C(C(=O)Nc1cnc(C(F)(F)F)nc1-c1ccc(C(F)(F)F)nc1)=C2O.Cl", "note": "[Example 146, (4aR)-1-[[2,6-Dichloro-4-(2-morpholin-4-ylethoxy)phenyl]methyl]-4-hydroxy-4a-methyl-2-oxo-N-[2-(trifluoromethyl)-4-[6-(trifluoromethyl)pyridin-3-yl]pyrimidin-5-yl]-6,7-dihydro-5H-pyrrolo[1,2-b]pyridazine-3-carboxamide hydrochloride]", "Rate of uptake inhibition (%) (1 µM)": 71}
{"molecule": "C[C@]12CCCN1N(Cc1c(Cl)cc(OCCN3CCOCC3)cc1Cl)C(=O)C(C(=O)Nc1ccc(C(F)(F)F)nc1-c1ccc(C(F)(F)F)nc1)=C2O.Cl", "note": "[Example 148, (4aR)-1-[[2,6-Dichloro-4-(2-morpholin-4-ylethoxy)phenyl]methyl]-4-hydroxy-4a-methyl-2-oxo-N-[6-(trifluoromethyl)-2-[6-(trifluoromethyl)pyridin-3-yl]pyridin-3-yl]-6,7-dihydro-5H-pyrrolo[1,2-b]pyridazine-3-carboxamide hydrochloride]", "Rate of uptake inhibition (%) (1 µM)": 75}
{"molecule": "C[C@]12CCCN1N(Cc1ccc(OCCN3CCOCC3)c(Cl)c1)C(=O)C(C(=O)Nc1ccc(C(F)(F)F)cc1-c1ccc(C(F)(F)F)nc1)=C2O", "note": "[Example 149, (4aR)-1-[[3-Chloro-4-(2-morpholin-4-ylethoxy)phenyl]methyl]-4-hydroxy-4a-methyl-2-oxo-N-[4-(trifluoromethyl)-2-[6-(trifluoromethyl)pyridin-3-yl]phenyl]-6,7-dihydro-5H-pyrrolo[1,2-b]pyridazine-3-carboxamide]", "Rate of uptake inhibition (%) (1 µM)": 80}
{"molecule": "COC(=O)COc1ccc(CN2C(=O)C(C(=O)Nc3ccc(C(F)(F)F)cc3-c3ccc(C(F)(F)F)nc3)=C(O)[C@@]3(C)CCCN23)c(F)c1F", "note": "[Example 150, Methyl 2-[4-[[(4aR)-4-Hydroxy-4a-methyl-2-oxo-3-[[4-(trifluoromethyl)-2-[6-(trifluoromethyl)pyridin-3-yl]phenyl]carbamoyl]-6,7-dihydro-5H-pyrrolo[1,2-b]pyridazin-1-yl]methyl]-2,3-difluorophenoxy] acetate]", "Rate of uptake inhibition (%) (1 µM)": 87}
{"molecule": "COc1cccc(-c2cc(C(F)(F)F)ccc2NC(=O)C2=C(O)[C@@]3(C)CCCN3N(Cc3ccc(OCc4ccncc4)c(F)c3F)C2=O)c1OC", "note": "[Example 151, (4aR)-1-[[2,3-Difluoro-4-(pyridin-4-ylmethoxy)phenyl]methyl]-N-[2-(2,3-dimethoxyphenyl)-4-(trifluoromethyl)phenyl]-4-hydroxy-4a-methyl-2-oxo-6,7-dihydro-5H-pyrrolo[1,2-b]pyridazine-3-carboxamide]", "Rate of uptake inhibition (%) (1 µM)": 92}
{"molecule": "C[C@]12CCCN1N(Cc1c(F)cc(OCCCCCOC[C@@H](O)CO)cc1F)C(=O)C(C(=O)Nc1ccc(C(F)(F)F)cc1-c1ccc(C(F)(F)F)nc1)=C2O", "note": "[Example 153]", "Rate of uptake inhibition (%) (1 µM)": 73}
{"molecule": "C[C@]12CCCN1N(Cc1c(F)cc(OCCCCCCOC[C@@H](O)CO)cc1F)C(=O)C(C(=O)Nc1ccc(C(F)(F)F)cc1-c1ccc(C(F)(F)F)nc1)=C2O", "note": "[Example 154]", "Rate of uptake inhibition (%) (1 µM)": 73}
{"molecule": "C[C@]12CCCN1N(Cc1c(F)cc(OCCCCCCOC[C@H](O)CO)cc1F)C(=O)C(C(=O)Nc1ccc(C(F)(F)F)cc1-c1ccc(C(F)(F)F)nc1)=C2O", "note": "[Example 155]", "Rate of uptake inhibition (%) (1 µM)": 77}
{"molecule": "COc1cccc(-c2cc(C(F)(F)F)ccc2NC(=O)C2=C(O)[C@@]3(C)CCCN3N(Cc3ccc(OC4CCOCC4)c(F)c3F)C2=O)c1OC", "note": "[Example 158]", "Rate of uptake inhibition (%) (1 µM)": 84}
{"molecule": "COc1cccc(-c2cc(C(F)(F)F)ccc2NC(=O)C2=C(O)[C@@]3(C)CCCN3N(Cc3ccc(OC[C@H]4CCCO4)c(F)c3F)C2=O)c1OC", "note": "[Example 159]", "Rate of uptake inhibition (%) (1 µM)": 89}
{"molecule": "C[C@]12CCCN1N(Cc1ccc(OC[C@H]3CCCO3)c(F)c1F)C(=O)C(C(=O)Nc1ccc(C(F)(F)F)cc1-c1ccc(C(F)(F)F)nc1)=C2O", "note": "[Example 160]", "Rate of uptake inhibition (%) (1 µM)": 77}
{"molecule": "C[C@]12CCCN1N(Cc1ccc(OCCCCCO)c(F)c1F)C(=O)C(C(=O)Nc1ccc(C(F)(F)F)cc1-c1cc(C(F)(F)F)ncn1)=C2O", "note": "[Example 162]", "Rate of uptake inhibition (%) (1 µM)": 73}
{"molecule": "C[C@]12CCCN1N(Cc1ccc(SCCN3CCOCC3)c(F)c1F)C(=O)C(C(=O)Nc1ccc(C(F)(F)F)cc1-c1ccc(C(F)(F)F)nc1)=C2O.Cl", "note": "[Example 163, (4aR)-1-[[2,3-Difluoro-4-(2-morpholin-4-ylethylsulfanyl)phenyl]methyl]-4-hydroxy-4a-methyl-2-oxo-N-(4-(trifluoromethyl)-2-[6-(trifluoromethyl)pyridin-3-yl]phenyl)-6,7-dihydro-5H-pyrrolo[1,2-b]pyridazine-3-carboxamide hydrochloride]", "Rate of uptake inhibition (%) (1 µM)": 79}
{"molecule": "COC(=O)c1cc(F)c(CN2C(=O)C(C(=O)Nc3ccc(C(F)(F)F)cc3-c3ccc(C(F)(F)F)nc3)=C(O)[C@@]3(C)CCCN23)c(F)c1", "note": "[Example 165, Methyl 4-[[(4aR)-4-Hydroxy-4a-methyl-2-oxo-3-[[4-(trifluoromethyl)-2-[6-(trifluoromethyl)pyridin-3-yl]phenyl]carbamoyl]-6,7-dihydro-5H-pyrrolo[1,2-b]pyridazin-1-yl]methyl]-3,5-difluorobenzoate]", "Rate of uptake inhibition (%) (1 µM)": 75}
{"molecule": "C[C@]12CCCN1N(Cc1ccc(Br)cc1F)C(=O)C(C(=O)Nc1cc(F)c(Br)c(F)c1)=C2O", "note": "[Example 166, (4aR)-N-(4-Bromo-3,5-difluorophenyl)-1-[(4-bromo-2-fluorophenyl)methyl]-4-hydroxy-4a-methyl-2-oxo-6,7-dihydro-5H-pyrrolo[1,2-b]pyridazine-3-carboxamide]", "Rate of uptake inhibition (%) (1 µM)": 73}
{"molecule": "C[C@]12CCCN1N(Cc1cccc(OC(F)F)c1)C(=O)C(C(=O)Nc1ccc(C(F)(F)F)cc1-c1ccc(C(F)(F)F)nc1)=C2O", "note": "[Example 167]", "Rate of uptake inhibition (%) (1 µM)": 73}
{"molecule": "C[C@]12CCCN1N(Cc1ccccc1Cl)C(=O)C(C(=O)Nc1ccc(C(F)(F)F)cc1-c1ccc(C(F)(F)F)nc1)=C2O", "note": "[Example 168]", "Rate of uptake inhibition (%) (1 µM)": 72}
{"molecule": "C[C@]12CCCN1N(Cc1cccc(Cl)c1)C(=O)C(C(=O)Nc1ccc(C(F)(F)F)cc1-c1ccc(C(F)(F)F)nc1)=C2O", "note": "[Example 169]", "Rate of uptake inhibition (%) (1 µM)": 73}
{"molecule": "C[C@]12CCCN1N(Cc1ccc(F)c(F)c1)C(=O)C(C(=O)Nc1ccc(C(F)(F)F)cc1-c1ccc(C(F)(F)F)nc1)=C2O", "note": "[Example 170]", "Rate of uptake inhibition (%) (1 µM)": 73}
{"molecule": "C[C@]12CCCN1N(Cc1cc(F)cc(F)c1)C(=O)C(C(=O)Nc1ccc(C(F)(F)F)cc1-c1ccc(C(F)(F)F)nc1)=C2O", "note": "[Example 171]", "Rate of uptake inhibition (%) (1 µM)": 78}
{"molecule": "C[C@]12CCCN1N(Cc1cc(F)ccc1F)C(=O)C(C(=O)Nc1ccc(C(F)(F)F)cc1-c1ccc(C(F)(F)F)nc1)=C2O", "note": "[Example 172]", "Rate of uptake inhibition (%) (1 µM)": 72}
{"molecule": "C[C@]12CCCN1N(Cc1ccc(F)cc1F)C(=O)C(C(=O)Nc1ccc(C(F)(F)F)cc1-c1ccc(C(F)(F)F)nc1)=C2O", "note": "[Example 173]", "Rate of uptake inhibition (%) (1 µM)": 73}
{"molecule": "C[C@]12CCCN1N(Cc1cccc(F)c1Cl)C(=O)C(C(=O)Nc1cc(F)c(Br)c(F)c1)=C2O", "note": "[Example 174]", "Rate of uptake inhibition (%) (1 µM)": 87}
{"molecule": "COc1cccc(CN2C(=O)C(C(=O)Nc3ccc(C(F)(F)F)cc3-c3ccc(C(F)(F)F)nc3)=C(O)[C@@]3(C)CCCN23)c1OC", "note": "[Example 175]", "Rate of uptake inhibition (%) (1 µM)": 85}
{"molecule": "COc1ccc(OC)c(CN2C(=O)C(C(=O)Nc3ccc(C(F)(F)F)cc3-c3ccc(C(F)(F)F)nc3)=C(O)[C@@]3(C)CCCN23)c1", "note": "[Example 176]", "Rate of uptake inhibition (%) (1 µM)": 75}
